{
  "source": "ChEMBL document CHEMBL1201862",
  "about": "“PubChem BioAssay data set” (2004)",
  "key": {"[1]": {"biological_target": "T1, 1-phosphatidylinositol 4,5-bisphosphate phosphodiesterase gamma-1 (Homo sapiens, UniProt P19174)", "T1 sequence (P19174 whole entry)": "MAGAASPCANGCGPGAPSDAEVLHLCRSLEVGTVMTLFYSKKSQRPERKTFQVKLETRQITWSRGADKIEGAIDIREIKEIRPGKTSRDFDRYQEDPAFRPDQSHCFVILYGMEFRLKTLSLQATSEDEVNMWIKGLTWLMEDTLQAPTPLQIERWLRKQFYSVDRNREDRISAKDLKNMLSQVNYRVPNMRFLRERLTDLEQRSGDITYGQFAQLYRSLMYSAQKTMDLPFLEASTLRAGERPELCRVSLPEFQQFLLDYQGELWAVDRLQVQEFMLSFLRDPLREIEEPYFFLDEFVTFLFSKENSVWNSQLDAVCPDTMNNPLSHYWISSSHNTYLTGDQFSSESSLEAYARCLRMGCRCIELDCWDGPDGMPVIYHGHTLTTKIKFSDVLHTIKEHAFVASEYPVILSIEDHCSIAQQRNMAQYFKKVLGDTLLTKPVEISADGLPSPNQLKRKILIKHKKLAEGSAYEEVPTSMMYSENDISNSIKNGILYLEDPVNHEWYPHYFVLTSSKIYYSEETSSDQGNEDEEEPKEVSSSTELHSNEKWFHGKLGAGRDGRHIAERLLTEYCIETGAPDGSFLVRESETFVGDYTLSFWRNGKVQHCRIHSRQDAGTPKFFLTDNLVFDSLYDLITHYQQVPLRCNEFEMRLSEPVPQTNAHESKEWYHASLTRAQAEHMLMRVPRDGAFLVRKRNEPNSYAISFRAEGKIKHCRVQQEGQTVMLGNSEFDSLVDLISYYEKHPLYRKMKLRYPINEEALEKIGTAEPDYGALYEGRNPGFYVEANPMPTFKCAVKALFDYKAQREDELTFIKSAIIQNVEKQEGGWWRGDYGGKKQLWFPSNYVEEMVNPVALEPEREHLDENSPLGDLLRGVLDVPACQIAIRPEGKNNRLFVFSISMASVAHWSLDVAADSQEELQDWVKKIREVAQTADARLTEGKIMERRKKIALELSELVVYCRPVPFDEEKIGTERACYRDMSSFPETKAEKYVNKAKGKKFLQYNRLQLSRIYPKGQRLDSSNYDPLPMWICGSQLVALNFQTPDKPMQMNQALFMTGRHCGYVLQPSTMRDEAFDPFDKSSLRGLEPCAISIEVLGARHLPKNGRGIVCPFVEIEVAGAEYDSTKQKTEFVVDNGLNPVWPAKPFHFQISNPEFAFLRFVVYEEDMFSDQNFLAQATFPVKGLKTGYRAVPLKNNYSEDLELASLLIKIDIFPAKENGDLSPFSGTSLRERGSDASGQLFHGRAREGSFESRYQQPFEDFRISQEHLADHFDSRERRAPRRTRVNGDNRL", "test": "Counterscreen for inhibitors of phospholipase C isozymes (PLC-B3): Fluorescence-based biochemical high throughput dose response assay to identify inhibitors of phospholipase C isozymes (PLC-gamma1)."}, "MEF": {"tested_on": "MEF", "test": "SAR analysis of small molecule cytotoxicity of MazEF TA System activators in embryonic fibroblast (MEF) cells. [Related pubchem assays (depositor defined):AID504720, AID504743]", "assay_type": "functional", "conditions": "Mus musculus"}, "[2]": {"test": "cytotoxicity toward DRD oncogenic fibroblasts, dose response, cell-based, non-viral oncogenic, luminescence (AID 1934)", "assay_type": "functional", "conditions": "Homo sapiens"}, "Cysteine protease ATG4B": {"biological_target": "T2, Cysteine protease ATG4B (Homo sapiens, UniProt Q9Y4P1)", "T2 sequence (Q9Y4P1 whole entry)": "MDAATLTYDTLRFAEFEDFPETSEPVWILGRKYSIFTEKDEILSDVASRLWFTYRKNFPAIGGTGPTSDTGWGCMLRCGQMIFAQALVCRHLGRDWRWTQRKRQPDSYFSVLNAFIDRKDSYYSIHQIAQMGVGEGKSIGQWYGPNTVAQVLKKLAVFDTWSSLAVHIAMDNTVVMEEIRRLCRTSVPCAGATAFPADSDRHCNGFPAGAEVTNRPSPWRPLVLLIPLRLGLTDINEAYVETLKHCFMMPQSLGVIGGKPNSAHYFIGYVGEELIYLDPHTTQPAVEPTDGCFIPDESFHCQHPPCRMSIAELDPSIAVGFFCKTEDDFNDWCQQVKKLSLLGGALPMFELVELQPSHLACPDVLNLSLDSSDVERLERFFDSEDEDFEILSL", "assay_type": "functional"}, "[3]": {"tested_on": "Streptococcus sp. 'group A'", "test": "growth inhibition of control SK(-) GAS strain, dose response, counter-screen for streptokinase expression inhibitor project, luminescence, kanamycin, BacTiterGlo, confirmation (AID 1900)", "assay_type": "functional, organism-based"}, "[4]": {"biological_target": "Photoreceptor-specific nuclear receptor (Homo sapiens, UniProt Q9Y5X4)", "sequence (Q9Y5X4 whole entry)": "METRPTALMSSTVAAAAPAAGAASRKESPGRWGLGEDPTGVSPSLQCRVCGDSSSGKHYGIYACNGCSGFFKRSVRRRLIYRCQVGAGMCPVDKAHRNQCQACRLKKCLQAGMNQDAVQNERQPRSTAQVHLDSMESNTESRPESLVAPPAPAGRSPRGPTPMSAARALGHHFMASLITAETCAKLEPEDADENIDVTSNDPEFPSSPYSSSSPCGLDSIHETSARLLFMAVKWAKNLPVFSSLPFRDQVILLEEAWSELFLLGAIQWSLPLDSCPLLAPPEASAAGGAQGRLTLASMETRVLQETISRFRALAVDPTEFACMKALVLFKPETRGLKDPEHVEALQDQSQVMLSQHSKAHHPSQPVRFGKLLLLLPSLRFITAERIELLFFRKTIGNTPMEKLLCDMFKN", "assay_type": "functional"}, "[5]": {"test": "growth suppression of PTEN-null colon cells, dose response, cell-based, HCT116 PTEN knockout (AID 1047);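 further: HCT116 colon tumor cells with PTEN knocked out; cells exposed to compound for 60 hours before readout; potency for loss of cell viability measured by luminescence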", "assay_type": "functional"}, "cells": {"test": "cells", "assay_type": "functional"}, "[6]": {"biological_target": "Lysine-specific demethylase 4A (Homo sapiens, UniProt O75164)", "sequence (O75164 whole entry)": "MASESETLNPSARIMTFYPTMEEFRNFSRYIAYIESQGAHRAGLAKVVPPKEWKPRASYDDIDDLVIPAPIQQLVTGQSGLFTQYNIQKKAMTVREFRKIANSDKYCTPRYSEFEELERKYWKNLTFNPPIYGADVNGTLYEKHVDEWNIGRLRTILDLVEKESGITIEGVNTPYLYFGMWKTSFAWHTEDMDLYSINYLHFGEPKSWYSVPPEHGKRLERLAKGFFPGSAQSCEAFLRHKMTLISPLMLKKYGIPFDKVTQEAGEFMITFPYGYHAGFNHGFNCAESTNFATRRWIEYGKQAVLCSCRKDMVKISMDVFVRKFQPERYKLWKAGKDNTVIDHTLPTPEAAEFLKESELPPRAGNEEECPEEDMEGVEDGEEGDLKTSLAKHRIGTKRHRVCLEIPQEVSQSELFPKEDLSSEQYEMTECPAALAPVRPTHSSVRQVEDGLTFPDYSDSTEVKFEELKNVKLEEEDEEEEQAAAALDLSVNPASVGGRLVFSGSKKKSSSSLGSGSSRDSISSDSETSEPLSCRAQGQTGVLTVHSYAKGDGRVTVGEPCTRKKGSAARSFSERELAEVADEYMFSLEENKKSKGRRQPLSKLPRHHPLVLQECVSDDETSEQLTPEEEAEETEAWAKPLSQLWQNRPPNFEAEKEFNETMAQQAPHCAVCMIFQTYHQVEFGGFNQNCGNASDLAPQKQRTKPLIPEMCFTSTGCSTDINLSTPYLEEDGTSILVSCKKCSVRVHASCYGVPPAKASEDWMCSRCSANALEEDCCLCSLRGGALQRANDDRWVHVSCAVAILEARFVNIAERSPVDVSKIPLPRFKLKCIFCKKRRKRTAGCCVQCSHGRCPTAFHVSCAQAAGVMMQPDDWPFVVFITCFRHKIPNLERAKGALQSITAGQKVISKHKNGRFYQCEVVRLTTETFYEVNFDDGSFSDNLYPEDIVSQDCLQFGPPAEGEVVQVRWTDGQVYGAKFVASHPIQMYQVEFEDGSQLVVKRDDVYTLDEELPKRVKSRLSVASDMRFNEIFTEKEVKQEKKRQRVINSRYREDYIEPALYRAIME", "test": "JMJD2A histone demethylase inhibitors, dose response, selectivity assay for GASC-1 inhibitor project, biochemical, DELFIA europium, cherry-picked samples (AID 488840)"}},
  "note": "The source made the active and inactive calls.",
  "data": [
    {"smiles": "O=C(CCN1C(=O)/C(=C\\c2ccco2)SC1=S)Nc1ccc(C(=O)O)c(O)c1", "values": [
      {"measurement": "IC50", "setting": "[1]", "value": "> 122 µM (inactive)"}
    ]},
    {"smiles": "O=C1C=C(c2c(O)ccc3ccccc23)c2ccccc2C1=O", "values": [
      {"measurement": "CC50", "setting": "MEF", "value": "3.84 µM (active)"}
    ]},
    {"smiles": "Cc1nc2c(=O)n(C)c(=O)nc-2n(C)n1", "values": [
      {"measurement": "EC50", "setting": "[2]", "value": "4.39 µM (active)"},
      {"measurement": "IC50", "setting": "Cysteine protease ATG4B", "value": "3.73 µM (active)"},
      {"measurement": "EC50", "setting": "[3]", "value": "4.74 µM (active)"},
      {"measurement": "IC50", "setting": "[4]", "value": "> 39.8 µM (not active)"},
      {"measurement": "EC50", "setting": "[5]", "value": "0.821 µM (active)"},
      {"measurement": "IC50", "setting": "cells", "value": "2.27 µM (active)"},
      {"measurement": "AC50", "setting": "[6]", "value": "1.78 µM (active)"}
    ]}
  ]
}
